# Read-outs that look alike come from different tables or passages of the source.
# What was measured:
# Assay type in all cases: cell-based
# [1] = system: human breast cancer cell line BT-474; assay: MTT tumor cell proliferation; settings: Homo sapiens, 72 h
# Text: MTT colorimetric method was used to detect the inhibitory activity of a series of compounds (i.e. ZZY-001 to ZZY-016, a total of 16 kinds) of the embodiment of the present invention on the proliferation of tumor cells in vitro. The full name of MTT is 3-(4,5-dimethyl-2-thiazolyl)-2,5-diphenyl-2-H-tetrazolium romide, which is a yellow dye also known as thiazolyl blue. […] DMSO can dissolve Formazan deposited in cells and the absorbance value can be measured with a enzyme marker at a wavelength of 490 nm. In a certain range of cell number, the production of Formazan is proportional to the number of cells, so the number of living cells can be inferred according to the measured OD value.
# The cell suspension was inoculated on a 96-well plate at 100 μl/well and cultured in a constant temperature CO2 incubator for 24 h. Then the tested drugs were added, 100 μl/well, and cultured for 72 h. MTT was added to a 96-well plate, 20 μl/well, and reacted for 4 h in the incubator. Absorb the supernatant, add DMSO, 150 μl/well and shake for 10 min on the plate shaker. The optical density (OD value) of each well was measured by enzyme marker at the wavelength of 490 nm.
# NCI-H82 = assay: CellTiter-Glo cell proliferation; settings: CTG, 72 hours; for % inhibition at top conc.: highest concentration 10/50 μM; for IC50: read-out: Absolute IC50
# Method: (§1) The effect of the present invention compound ZZY-003 on the cell proliferation of 50 cell lines was evaluated by CellTiter-Glo (CTG) method, and the 50% inhibitory concentration was calculated by detecting the cell viability after treatment with different drug concentrations. The cells were resuscitated and cultured in their respective culture media. The cells in logarithmic growth phase were harvested and the cells were counted by cell counter. The cell viability was detected by Trypan blue exclusion method to ensure that the cell line viability was more than 96%. The cell concentration was adjusted by diluting with the culture medium, and 90 μL cell suspension was added to the 96-well cell plate (including the cell control T0 on the day of drug treatment) to make the cell density reach the specified concentration. The cells in the 96-well plate were cultured overnight at 37° C., 5% CO2 and 95% humidity. 10 μL culture medium was added to the control cell culture plate. CellTiter-Glo reagent and cell culture plate were placed at room temperature to balance for 30 minutes. The same volume of CellTiter-Glo reagent was added to each well. Vibrate on the orbital shaker for 2 min to make the cells fully lytic. The cell culture plate was placed at room temperature to balance for 10 minutes. Chemiluminescence values were read with EnVision. The storage solution was formed by dissolving the tested compound with the corresponding solvent and diluted in gradient to obtain 10 times working concentration solution, and 10 times solution of positive drug was also prepared. 10 μL drug solution was added to each well in the 96-well plate in which the cells were inoculated, and each cell concentration was provided with three duplicate wells. The highest concentration of the tested compound was 10/50 μM, 9 concentrations and 3.16 times dilution. The cells in the 96-well plate added with drug were cultured at 37° C., 5% CO2 and 95% humidity for 72 hours. CellTiter-Glo reagent and drug-treated cell culture plate were placed at room temperature to balance for 30 minutes. The same volume of CellTiter-Glo reagent was added to each well. Vibrate on the orbital shaker for 2 minutes to make the cells fully lytic. The cell culture plate was placed at room temperature to balance for 10 minutes. Chemiluminescence values were read with EnVision. Data processing: […] Cell survival rate (%)=(Lum drug to be detected−Lum culture medium control)/(Lum cell control−Lum culture medium control)×100%; Lum cell control−Lum culture medium control was set to 100%, LumMedium control value was set to 0%;
# 786-O = assay: CellTiter-Glo cell proliferation; settings: 72 hours; for % inhibition at top conc.: highest concentration 10/50 μM; for IC50: read-out: Absolute IC50
# Method: as §1
# SK-MEL-28 = assay: CellTiter-Glo cell proliferation; settings: CTG, 72 hours; for % inhibition at top conc.: highest concentration 10/50 μM; for IC50: read-out: Absolute IC50
# Method: as §1
# MDA-MB-231 = assay: CellTiter-Glo cell proliferation; settings: CTG, 72 hours; for % inhibition at top conc.: highest concentration 10/50 μM
# Method: as §1
# LP-1 = assay: CellTiter-Glo cell proliferation; settings: CTG, 72 hours; for % inhibition at top conc.: highest concentration 10/50 μM; for IC50: read-out: Absolute IC50
# Method: as §1
# MDA-MB-453 = assay: CellTiter-Glo cell proliferation; settings: CTG, 72 hours; for % inhibition at top conc.: highest concentration 10/50 μM; for IC50: read-out: Absolute IC50
# Method: as §1
# OE19 = assay: CellTiter-Glo cell proliferation; settings: CTG, 72 hours; for % inhibition at top conc.: highest concentration 10/50 μM; for IC50: read-out: Absolute IC50
# Method: as §1
# MIA PaCa-2 = assay: CellTiter-Glo cell proliferation; settings: CTG, 72 hours; for % inhibition at top conc.: highest concentration 10/50 μM; for IC50: read-out: Absolute IC50
# Method: as §1
# HeLa = assay: CellTiter-Glo cell proliferation; settings: CTG, 72 hours; for % inhibition at top conc.: highest concentration 10/50 μM; for IC50: read-out: Absolute IC50
# Method: as §1
# HL-60 = assay: CellTiter-Glo cell proliferation; settings: CTG, 72 hours; for % inhibition at top conc.: highest concentration 10/50 μM; for IC50: read-out: Absolute IC50
# Method: as §1
# SNU-5 = assay: CellTiter-Glo cell proliferation; settings: CTG, 72 hours; for % inhibition at top conc.: highest concentration 10/50 μM; for IC50: read-out: Absolute IC50
# Method: as §1
# EBC-1 = assay: CellTiter-Glo cell proliferation; settings: CTG, 72 hours; for % inhibition at top conc.: highest concentration 10/50 μM; for IC50: read-out: Absolute IC50
# Method: as §1
# DLD-1 = assay: CellTiter-Glo cell proliferation; settings: CTG, 72 hours; for % inhibition at top conc.: highest concentration 10/50 μM; for IC50: read-out: Absolute IC50
# Method: as §1
# PC-3 = assay: CellTiter-Glo cell proliferation; settings: CTG, 72 hours; for % inhibition at top conc.: highest concentration 10/50 μM; for IC50: read-out: Absolute IC50
# Method: as §1
# T84 = assay: CellTiter-Glo cell proliferation; settings: CTG, 72 hours; for % inhibition at top conc.: highest concentration 10/50 μM; for IC50: read-out: Absolute IC50
# Method: as §1
# U266B1 = assay: CellTiter-Glo cell proliferation; settings: CTG, 72 hours; for % inhibition at top conc.: highest concentration 10/50 μM; for IC50: read-out: Absolute IC50
# Method: as §1
# AZ-521 = assay: CellTiter-Glo cell proliferation; settings: CTG, 72 hours; for % inhibition at top conc.: highest concentration 10/50 μM; for IC50: read-out: Absolute IC50
# Method: as §1
# SK-N-FI = assay: CellTiter-Glo cell proliferation; settings: CTG, 72 hours; for % inhibition at top conc.: highest concentration 10/50 μM; for IC50: read-out: Absolute IC50
# Method: as §1
# SNU-761 = assay: CellTiter-Glo cell proliferation; settings: CTG, 72 hours; for % inhibition at top conc.: highest concentration 10/50 μM; for IC50: read-out: Absolute IC50
# Method: as §1
# Hep G2 = assay: CellTiter-Glo cell proliferation; settings: 72 hours; for % inhibition at top conc.: highest concentration 10/50 μM; for IC50: read-out: Absolute IC50
# Method: as §1
# HuCCT1 = assay: CellTiter-Glo cell proliferation; settings: 72 hours; for % inhibition at top conc.: highest concentration 10/50 μM; for IC50: read-out: Absolute IC50
# Method: as §1
compound,measurement,setting,value
Cc1ccc(C(=O)Nc2cc(N3CCNCC3)ccc2-c2ccc(/C=C/C(=O)NO)cc2C)cc1.Cl [ZZY-003],IC50,[1],1860 nM
same,% inhibition at top conc.,NCI-H82,99.94%
same,IC50,NCI-H82; Homo sapiens,370 nM
same,% inhibition at top conc.,786-O; CTG,99.96%
same,IC50,"786-O; Homo sapiens, 786-0, CTG",3910 nM
same,% inhibition at top conc.,SK-MEL-28,99.89%
same,IC50,SK-MEL-28; Homo sapiens,1240 nM
same,% inhibition at top conc.,MDA-MB-231,92.06%
same,IC50,"MDA-MB-231; Homo sapiens, read-out: Absolute IC50",1810 nM
same,% inhibition at top conc.,LP-1,98.94%
same,IC50,LP-1; Homo sapiens,260 nM
same,% inhibition at top conc.,MDA-MB-453,99.93%
same,IC50,MDA-MB-453; Homo sapiens,190 nM
same,% inhibition at top conc.,OE19,98.95%
same,IC50,OE19; Homo sapiens,780 nM
same,% inhibition at top conc.,MIA PaCa-2,99.94%
same,IC50,MIA PaCa-2; Homo sapiens,480 nM
same,% inhibition at top conc.,HeLa,98.88%
same,IC50,HeLa; Homo sapiens,1400 nM
same,% inhibition at top conc.,HL-60,99.93%
same,IC50,HL-60; Homo sapiens,310 nM
same,% inhibition at top conc.,SNU-5,99.83%
same,IC50,SNU-5; Homo sapiens,1640 nM
same,% inhibition at top conc.,EBC-1,92.30%
same,IC50,EBC-1; Homo sapiens,1150 nM
same,% inhibition at top conc.,DLD-1,97.98%
same,IC50,DLD-1; Homo sapiens,5130 nM
same,% inhibition at top conc.,PC-3,96.56%
same,IC50,PC-3; Homo sapiens,1380 nM
same,% inhibition at top conc.,T84,98.70%
same,IC50,T84; Homo sapiens,9950 nM
same,% inhibition at top conc.,U266B1,98.03%
same,IC50,U266B1,640 nM
same,% inhibition at top conc.,AZ-521,99.95%
same,IC50,AZ-521; Homo sapiens,680 nM
same,% inhibition at top conc.,SK-N-FI,99.95%
same,IC50,SK-N-FI; Homo sapiens,3170 nM
same,% inhibition at top conc.,SNU-761,99.35%
same,IC50,SNU-761,9320 nM
same,% inhibition at top conc.,Hep G2; CTG,99.98%
same,IC50,"Hep G2; Homo sapiens, HepG2, CTG",840 nM
same,% inhibition at top conc.,HuCCT1; CTG,99.88%
same,IC50,"HuCCT1; Homo sapiens, HuCCT-1, CTG",1350 nM
"N.N.[Cl][Pt][Cl] [Cisplatin, reference compound]",% inhibition at top conc.,NCI-H82,99.63%
same,IC50,NCI-H82,4000 nM
same,% inhibition at top conc.,786-O; CTG,97.88%
same,IC50,786-O; CTG,2110 nM
same,% inhibition at top conc.,SK-MEL-28,99.34%
same,IC50,SK-MEL-28,8610 nM
same,% inhibition at top conc.,MDA-MB-231,85.71%
same,% inhibition at top conc.,LP-1,99.89%
same,IC50,LP-1,8680 nM
same,% inhibition at top conc.,MDA-MB-453,95.15%
same,IC50,MDA-MB-453,12900 nM
same,% inhibition at top conc.,OE19,62.99%
same,IC50,OE19,25800 nM
same,% inhibition at top conc.,MIA PaCa-2,99.18%
same,IC50,MIA PaCa-2,6050 nM
same,% inhibition at top conc.,HeLa,99.45%
same,IC50,HeLa,370 nM
same,% inhibition at top conc.,HL-60,99.99%
same,IC50,HL-60,1560 nM
same,% inhibition at top conc.,SNU-5,97.87%
same,IC50,SNU-5,2450 nM
same,% inhibition at top conc.,EBC-1,85.11%
same,IC50,EBC-1,17800 nM
same,% inhibition at top conc.,DLD-1,98.93%
same,IC50,DLD-1,5300 nM
same,% inhibition at top conc.,PC-3,85.52%
same,IC50,PC-3,5340 nM
same,% inhibition at top conc.,T84,87.03%
same,IC50,T84,5050 nM
same,% inhibition at top conc.,U266B1,98.85%
same,IC50,U266B1,14300 nM
same,% inhibition at top conc.,AZ-521,99.92%
same,IC50,AZ-521,2890 nM
same,% inhibition at top conc.,SK-N-FI,99.81%
same,IC50,SK-N-FI,10200 nM
same,% inhibition at top conc.,SNU-761,99.92%
same,IC50,SNU-761,4520 nM
same,% inhibition at top conc.,Hep G2; CTG,90.70%
same,IC50,Hep G2; CTG,5860 nM
same,% inhibition at top conc.,HuCCT1; CTG,89.54%
same,IC50,HuCCT1; CTG,11300 nM

# From patent US20200331882A1, “COMPOUND FOR SIMULTANEOUSLY INHIBITING LSD1 AND HDAC TARGETS AND APPLICATION THEREOF” (PEKING UNIVERSITY SHENZHEN GRADUATE SCHOOL, priority 2018, published 2020)
